Source: patent US9403843B2, “Cysteine protease inhibitors and uses thereof” (The Trustees of Columbia University in the City of New York, priority 2012, dated 2016)
Like-named read-outs stand apart in the source and are kept apart here.

Tests used:
[1] = system: calpain-generated spectrin fragments; assay: Spectrin proteolytic degradation products in hippocampi, western blot; format: in vivo
Protocol: Studies were performed to determine capability of lowering levels of spectrin proteolytic degradation products in hippocampi from adult animals. Using western blot analysis, prevention of calpain-generated spectrin fragments was checked following i.p. treatment for 12 days with 30a, 33 and 50 at the same concentrations used for PK assessment. The array of vehicle samples was obtained by loading samples with 5, 10, 15, and 20 μg total protein/lane. Samples from compound treated animals were loaded at 15 μg/lane.

full-length human Cal1 [2] = molecular target: T1, full-length human Cal1 (Homo sapiens (Human), UniProt P07384); assay: Calpain inhibition FRET assay; format: biochemical; details: Table 3, 20 min incubation, FRET substrate
[3] = system: Aβ-induced LTP impairment; assay: LTP rescue test; details: assessed at 650 nM
Protocol: Residual levels of potentiation were averaged during the last 5 min of LTP.

full-length human Cal1 [4] = molecular target: T1, full-length human Cal1; assay: Calpain inhibition FRET assay; format: biochemical
Aβ40 and Aβ42 = assay: Effect on Aβ levels in APP/PS1 mice; format: in vivo; details: compound-treated vs vehicle-treated APP/PS1 transgenics
Description: Increase of brain and plasma levels of Aβ and appearance of amyloid plaques is an important feature of AD.

papain = papain (Carica papaya (Papaya), UniProt P00784); assay: biochemical; format: biochemical
[5] = Plasma pharmacokinetics after i.p. administration; format: in vivo; details: ICR mice
Protocol: Plasma concentrations of 30a, 33 and 50 were determined by LC-MS/MS after i.p. administration to ICR mice. The plasma concentrations at each sampling time are shown on FIG. 10. […] Indeed, following i.p. administration of 30a (7.57 mg/kg), 33 (7.86 mg/kg) and 50 (7.83 mg/kg), the peak plasma concentration occurred at 0.25, 0.5 and 0.125 h after dosing, respectively. […] The respective half-lives were ˜0.6 hrs, ˜1.1 hrs and ˜0.6 hrs.

[6] = Acute and chronic toxicity, maximum tolerated dose; format: in vivo; details: mouse, in vivo; mice; no malaise or death
Description: For evaluation of acute and chronic toxicity we measured the maximum tolerated dose (MTD) in mice for 30a, 33 and 50.

[7] = molecular target: Full length porcine calpain (Sus scrofa (Pig), UniProt P35750); assay: Calpain inhibition kinetics studies (Suc-LLVY-AMC substrate); format: biochemical
[8] = ki/Ki calculated relative to E-64
[9] = mean ± S.D. of triplicate experiments

papain, sequence (P00784 134-345): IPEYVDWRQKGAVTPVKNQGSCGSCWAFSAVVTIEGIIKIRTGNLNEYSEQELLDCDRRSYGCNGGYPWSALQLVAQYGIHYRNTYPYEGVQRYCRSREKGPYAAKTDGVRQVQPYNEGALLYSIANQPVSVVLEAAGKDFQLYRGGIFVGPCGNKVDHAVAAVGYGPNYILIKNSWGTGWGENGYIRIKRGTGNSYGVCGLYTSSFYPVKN
T1 sequence (P07384 whole entry): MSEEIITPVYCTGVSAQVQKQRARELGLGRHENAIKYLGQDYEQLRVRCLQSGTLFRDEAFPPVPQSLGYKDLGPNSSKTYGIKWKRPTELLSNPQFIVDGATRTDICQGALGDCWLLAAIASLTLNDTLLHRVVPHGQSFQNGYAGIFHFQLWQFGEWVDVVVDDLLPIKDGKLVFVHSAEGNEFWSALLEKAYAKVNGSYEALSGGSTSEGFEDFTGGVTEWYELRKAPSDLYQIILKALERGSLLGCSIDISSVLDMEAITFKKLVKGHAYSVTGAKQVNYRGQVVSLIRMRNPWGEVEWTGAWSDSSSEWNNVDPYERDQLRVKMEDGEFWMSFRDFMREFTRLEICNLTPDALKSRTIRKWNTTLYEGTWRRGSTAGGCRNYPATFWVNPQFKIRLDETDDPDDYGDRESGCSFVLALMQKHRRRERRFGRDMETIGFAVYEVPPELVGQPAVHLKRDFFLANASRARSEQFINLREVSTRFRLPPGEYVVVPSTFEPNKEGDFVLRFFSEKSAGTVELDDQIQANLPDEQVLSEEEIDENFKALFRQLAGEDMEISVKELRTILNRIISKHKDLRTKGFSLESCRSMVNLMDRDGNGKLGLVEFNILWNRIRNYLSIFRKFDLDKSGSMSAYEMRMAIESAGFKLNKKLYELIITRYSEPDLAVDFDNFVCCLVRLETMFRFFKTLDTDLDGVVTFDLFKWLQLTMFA
T1 sequence (P04632 whole entry partner): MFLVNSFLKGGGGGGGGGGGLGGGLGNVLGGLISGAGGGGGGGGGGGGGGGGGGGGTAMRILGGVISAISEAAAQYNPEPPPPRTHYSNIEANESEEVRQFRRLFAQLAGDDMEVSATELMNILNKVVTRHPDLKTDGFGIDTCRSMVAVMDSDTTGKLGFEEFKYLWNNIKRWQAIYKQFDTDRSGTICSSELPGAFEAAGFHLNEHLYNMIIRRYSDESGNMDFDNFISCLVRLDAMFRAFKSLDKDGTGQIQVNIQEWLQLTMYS
Full length porcine calpain, sequence (P35750 whole entry): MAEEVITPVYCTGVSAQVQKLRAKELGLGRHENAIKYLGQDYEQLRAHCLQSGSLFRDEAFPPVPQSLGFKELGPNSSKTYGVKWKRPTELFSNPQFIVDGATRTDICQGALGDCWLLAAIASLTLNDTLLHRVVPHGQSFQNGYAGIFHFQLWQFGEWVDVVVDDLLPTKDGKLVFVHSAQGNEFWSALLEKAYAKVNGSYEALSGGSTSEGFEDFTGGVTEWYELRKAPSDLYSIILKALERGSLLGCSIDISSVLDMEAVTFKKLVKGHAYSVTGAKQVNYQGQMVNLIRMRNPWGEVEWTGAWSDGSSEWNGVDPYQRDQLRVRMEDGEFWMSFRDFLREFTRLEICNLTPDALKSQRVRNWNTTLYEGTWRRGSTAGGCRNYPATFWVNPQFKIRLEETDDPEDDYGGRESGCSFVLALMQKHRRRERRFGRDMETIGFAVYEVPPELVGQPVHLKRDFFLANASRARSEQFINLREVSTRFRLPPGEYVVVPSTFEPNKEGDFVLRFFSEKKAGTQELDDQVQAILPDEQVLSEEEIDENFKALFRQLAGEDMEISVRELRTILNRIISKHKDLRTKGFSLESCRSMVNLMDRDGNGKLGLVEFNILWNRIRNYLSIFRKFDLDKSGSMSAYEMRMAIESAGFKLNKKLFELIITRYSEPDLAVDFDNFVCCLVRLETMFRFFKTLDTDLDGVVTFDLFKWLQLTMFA
Full length porcine calpain, sequence (P04574 whole entry partner): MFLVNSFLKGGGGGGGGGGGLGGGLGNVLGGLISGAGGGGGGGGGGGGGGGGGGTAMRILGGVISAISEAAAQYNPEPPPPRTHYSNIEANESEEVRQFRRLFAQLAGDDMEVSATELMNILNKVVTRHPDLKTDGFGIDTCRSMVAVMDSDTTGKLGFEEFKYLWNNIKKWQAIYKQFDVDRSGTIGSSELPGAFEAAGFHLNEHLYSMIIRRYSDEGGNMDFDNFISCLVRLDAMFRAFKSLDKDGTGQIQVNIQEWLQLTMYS

Which results are given for `O=C(O)C1OC1C(=O)N[C@@H](Cc1cscn1)C(=O)Nc1nc(-c2ccc(F)cc2)cs1` (stereo in doubt) [Compound 33, (2S,3S)-3-((S)-1-(4-(4-fluorophenyl)thiazol-2-ylamino)-1-oxo-3-(thiazol-4-yl)propan-2-ylcarbamoyl)oxirane-2-carboxylic acid]?
prevention of spectrin cleavage by calpains in hippocampi ([1]; i.p. treatment for 12 days, doses as for PK): dramatically reduced the amount of fragments; brain penetration ([1]; inferred from hippocampal spectrin cleavage): capable of effectively penetrating the brain; IC50 (full-length human Cal1 [2]): 100 nM; potency for LTP rescue compared with E64 [3]: surpassed E64; IC50 (full-length human Cal1 [4]; Cal1, values stated in text, read-out: IC50): ~100 nM; IC50 (full-length human Cal1 [4]; Table 2, approximate IC50, read-out: Cal I IC50): 100 nM; Aβ40 and Aβ42 levels in hippocampi (Aβ40 and Aβ42): no difference was detected; Ki (papain; apparent equilibrium constant, read-out: K1 Papain): 5300 nM; ki Papain (papain; inhibition rate): 14.8 s⁻¹; rel Papain (papain; [8]): 0.50; 10^−5 × ki/Ki Papain (papain; [9]): 27.9 ± 4.7; time of peak plasma concentration ([5]; i.p., 30a 7.57, 33 7.86, 50 7.83 mg/kg): 0.5 h; half-life ([5]; mouse, ip, plasma): ~1.1 h; bioavailability ([5]; mouse, plasma, ip, after i.p. administration, read-out: absolute bioavailability): 87.3%; MTD [6]: 150 mg/kg; Ki ([7]; apparent equilibrium constant, full length Cal1, read-out: K1 Calpain1): 2600 nM; ki Calpain1 ([7]; inhibition rate, full length Cal1): 0.08 s⁻¹; relative selectivity for inhibition of Cal1 over papain (in words) ([7]; ki/Ki as measure, compared with E-64): Cal1 selectivity; rel Calpain1 [7, 8]: 0.98; 10^−4 × ki/Ki Calpain1 [7, 9]: 2.96 ± 0.14
